Test results from patent publication EP4813384A1, “COMBINED PHARMACEUTICAL PREPARATION OF TAFAMIDIS OR PHARMACEUTICALLY ACCEPTABLE SALT THEREOF AND PROLINE HYDROXYLASE INHIBITOR” (Huaya Jiyuan (Shenzhen) Pharmaceutical Co., Ltd., priority 2024, dated 2025).

Experiments:
HIF-2α = target: T1, HIF-2α (Homo sapiens, UniProt Q99814); test: Luciferase reporter gene assay (HRE-driven luciferase in stably transfected 786-O cells); format: cell-based; conditions: 786-O HRE-Luc cells, 24 hours, relative to blank control
T1 construct: 786-O is a renal carcinoma cell line that predominantly expresses HIF-2α; endogenous in cells; host or cells: 786-O cells stably transfected with HRE-driven luciferase reporter
T1 sequence (Q99814 whole entry): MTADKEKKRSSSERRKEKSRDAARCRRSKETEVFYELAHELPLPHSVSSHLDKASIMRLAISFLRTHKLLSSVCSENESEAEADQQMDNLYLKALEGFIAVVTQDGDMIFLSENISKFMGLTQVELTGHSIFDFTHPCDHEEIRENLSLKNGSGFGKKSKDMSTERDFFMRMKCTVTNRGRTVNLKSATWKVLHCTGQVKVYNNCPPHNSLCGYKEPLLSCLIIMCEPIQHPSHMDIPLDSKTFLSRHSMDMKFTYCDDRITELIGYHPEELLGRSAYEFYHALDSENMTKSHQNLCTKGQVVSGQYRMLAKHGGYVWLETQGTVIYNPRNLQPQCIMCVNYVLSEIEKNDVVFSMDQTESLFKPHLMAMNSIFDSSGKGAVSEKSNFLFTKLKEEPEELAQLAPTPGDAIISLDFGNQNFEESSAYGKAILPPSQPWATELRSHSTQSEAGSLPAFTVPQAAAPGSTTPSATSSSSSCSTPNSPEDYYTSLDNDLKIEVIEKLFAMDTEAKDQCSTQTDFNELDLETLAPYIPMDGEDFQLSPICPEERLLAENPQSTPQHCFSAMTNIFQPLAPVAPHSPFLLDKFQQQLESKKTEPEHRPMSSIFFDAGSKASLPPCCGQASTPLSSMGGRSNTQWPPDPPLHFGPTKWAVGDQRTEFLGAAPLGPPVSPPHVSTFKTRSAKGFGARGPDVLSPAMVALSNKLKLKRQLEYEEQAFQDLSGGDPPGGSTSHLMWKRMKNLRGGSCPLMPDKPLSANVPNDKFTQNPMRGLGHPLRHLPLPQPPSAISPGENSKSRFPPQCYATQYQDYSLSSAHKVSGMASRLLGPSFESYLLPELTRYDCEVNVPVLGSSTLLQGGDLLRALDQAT
T1 sequence (P27540 whole entry partner): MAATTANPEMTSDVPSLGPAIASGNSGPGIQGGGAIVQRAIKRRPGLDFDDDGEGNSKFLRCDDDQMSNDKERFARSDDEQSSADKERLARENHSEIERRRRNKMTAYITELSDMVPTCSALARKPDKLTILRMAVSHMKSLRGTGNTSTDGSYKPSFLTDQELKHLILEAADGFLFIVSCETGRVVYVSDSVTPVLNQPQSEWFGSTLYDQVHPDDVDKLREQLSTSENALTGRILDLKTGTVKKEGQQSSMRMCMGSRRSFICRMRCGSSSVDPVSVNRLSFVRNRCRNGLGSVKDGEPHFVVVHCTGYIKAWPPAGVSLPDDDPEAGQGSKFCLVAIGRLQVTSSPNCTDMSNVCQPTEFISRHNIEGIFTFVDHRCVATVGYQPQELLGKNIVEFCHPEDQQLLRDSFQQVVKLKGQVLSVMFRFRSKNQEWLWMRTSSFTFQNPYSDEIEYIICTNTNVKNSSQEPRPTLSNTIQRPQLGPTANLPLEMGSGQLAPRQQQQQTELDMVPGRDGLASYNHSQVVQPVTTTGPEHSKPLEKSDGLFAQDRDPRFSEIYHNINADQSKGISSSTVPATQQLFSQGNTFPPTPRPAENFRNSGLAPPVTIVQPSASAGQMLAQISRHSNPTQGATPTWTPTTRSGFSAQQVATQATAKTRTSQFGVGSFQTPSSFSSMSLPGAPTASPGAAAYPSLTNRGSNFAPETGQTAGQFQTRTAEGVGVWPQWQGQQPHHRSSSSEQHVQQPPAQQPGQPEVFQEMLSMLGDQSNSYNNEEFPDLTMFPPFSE
Source text: Experimental principles: 786-O is a renal carcinoma cell line that predominantly expresses HIF-2α and lacks functional HIF-1α. This characteristic makes 786-O cells an ideal model for studying HIF-2α transcriptional activity and related signaling pathways. In the luciferase reporter gene assay, a 786-O monoclonal cell line that stably expresses hypoxia response element (HRE)-driven luciferase (Luc) activity is obtained through puromycin selection. The HIF-2α agonist promotes dimerization of HIF-2α and HIF-β, and activates an HRE promoter. By measuring fluorescence intensity, luciferase activity can be determined, thereby assessing the ability of the HIF-2α agonist to promote transcription.
Experimental method: A total of 6000 stably transfected 786-O cells stably containing HRE and Luc sequences are seeded in each well of a 96-well plate, and 100 µL of RPMI-1640 culture medium containing 10% fetal bovine serum is added to each well. After 24 hours, a compound at a corresponding concentration is added to each well. A blank group is set as a control. Only a DMSO solvent is added in the well of the blank group. For initial compound screening, both tafamidis and tafamidis meglumine are tested at two concentrations: 2 µM and 20 µM. For concentration-gradient determination, each concentration is tested in triplicate. After co-incubation for 24 hours, the culture medium is discarded, and 20 µL of firefly luciferase reporter gene cell lysis buffer (RG126M, Beyotime) is added to each well. The 96-well plate is shaken on a microplate shaker for 10 minutes. After shaking, 10 µL of lysate is transferred into a white opaque plate, and then 10 µL of Steady-Lumi™ firefly luciferase assay reagent (RG058S, Beyotime) is added to each well. Finally, luminescence is measured using a microplate reader (Agilent Synergy Neo2). E20 represents the effect of the compound at a 20 µM concentration, and is calculated as: E20 = fluorescence value of the 20 µM well ÷ fluorescence value of the blank control × 100%. E2 represents the effect of the compound at a 2 µM concentration, and is calculated as: E2 = fluorescence value of the 2 µM well ÷ fluorescence value of the blank control × 100%. EC50 is the compound concentration at which the agonistic efficacy is increased by 50% relative to the blank control. […] The maximum activation percentage (Emax) of an agonist refers to a ratio, expressed as a percentage, of the fluorescence value corresponding to the maximal effect (observed maximal response) induced when the agonist concentration reaches receptor-binding saturation in a particular receptor system, to the fluorescence value of the receptor system in the absence of agonist. […]

[1] = test system: erythropoietin (EPO) gene expression; test: Real-time reverse transcription quantitative PCR (qRT-PCR) assay of EPO gene expression; format: cell-based; conditions: HepG2 cells, 24 hours, relative to vehicle
Protocol: Experimental method: HepG2 hepatocellular carcinoma cells are seeded into a 12-well plate. After 24 hours, 10 µM roxadustat, 1 µM tafamidis, 5 µM tafamidis, 10 µM tafamidis, and 20 µM tafamidis, a combination of 10 µM roxadustat and 1 µM tafamidis, a combination of 10 µM roxadustat and 5 µM tafamidis, a combination of 10 µM roxadustat and 10 µM tafamidis, and a combination of 10 µM roxadustat and 20 µM tafamidis, are added separately, and the cells are co-incubated with the compounds for 24 hours. No treatment is applied to the vehicle group. RNA is extracted using a TRIZOL reagent. cDNA transcription is performed using an All-in-one™ First-Strand cDNA Synthesis Kit (for specific operating procedures, see the manufacturer's instructions). A SYBR reagent is used for fluorescence signal detection, and GAPDH is used as an internal control. The qRT-PCR primers are as follows: • GAPDH_fwd, […]; • GAPDH_rev, TGGTGAAGACGCCAGTGGA; • EPO_fwd, […]; • EPO_rev, […].
The test results are shown in FIG. 2: relative to the vehicle (control group), monotherapy with 10 µM roxadustat upregulates erythropoietin (EPO) gene expression by 1.5-fold, while monotherapy with 20 µM tafamidis upregulates EPO gene expression by 1-fold. […] Such activation may have potential therapeutic value for treating diseases such as ischemic diseases or anemia. Statistical analysis is performed using SPSS software. […]

rats with renal anemia = test: Cisplatin-induced renal anemia rat model; format: in vivo, Male Sprague-Dawley (SD) rats; conditions: 5 mg/kg roxadustat
Protocol: Male Sprague-Dawley (SD) rats are allowed a one-week acclimation period, after which cisplatin (6 mg/kg) is administered through tail vein injection. A second injection is given one week later. Two weeks after the first administration, successful establishment of a renal disease model is confirmed by measuring serum creatinine and urea levels. The successfully modeled rats are randomly divided into three groups: cisplatin group (n = 6), 5 mg/kg roxadustat group (n = 6), and 5 mg/kg roxadustat + 10 mg/kg tafamidis group (n = 6), with continuous administration for 4 weeks. A solvent is administered to the normal control group (n = 7) and the cisplatin group based on the same drug administration regimen. After drug administration, blood analysis is performed once per week using a Mindray automated hematology analyzer (BC-5150). After sample collection, the rats are euthanized. Statistical significance is determined by one-way analysis of variance (ANOVA), and then a Dunnett's test is performed for comparison with the cisplatin group (*P < 0.05, **P < 0.01, ***P < 0.001).

Compound	agonistic efficacy at a 2 µM concentration (E2) (HIF-2α)	agonistic efficacy at a 20 µM concentration (E20) (HIF-2α)	upregulates EPO gene expression ([1]; 20 µM tafamidis monotherapy)	upregulates erythropoietin (EPO) gene expression ([1]; 10 µM roxadustat monotherapy)	Hematocrit (rats with renal anemia; Week 4, n = 6)	Hemoglobin concentration (rats with renal anemia; Week 4, n = 6)	Red blood cell count (rats with renal anemia; Week 4, n = 6)	kidneys appear red (gross observation of kidney tissues) (rats with renal anemia; group n = 6)
O=C(O)c1ccc2nc(-c3cc(Cl)cc(Cl)c3)oc2c1 [tafamidis, 2-(3,5-dichlorophenyl)-1,3-benzoxazole-6-carboxylic acid]	142%	207%	1 fold	–	–	–	–	–
Cc1nc(C(=O)NCC(=O)O)c(O)c2ccc(Oc3ccccc3)cc12 [roxadustat]	–	–	–	1.5 fold	52.2 ± 1.3%	143.3 ± 4.1 g/L	7.03 ± 0.40 ×10^12 cells/L	3 rats
O=C(O)c1ccc2nc(-c3cc(Cl)cc(Cl)c3)oc2c1 [tafamidis meglumine]	122%	223%	–	–	–	–	–	–
